Literature values, collected in patent US10986851B2, “Control of pathogenic bacteria in foods” (priority 2018, dated 2021).

Columns and labels:
[1] = tested on: Salmonella; conditions: suspension in 0.1% peptone water
[2] = tested on: Salmonella; conditions: ground chicken containing 9.8% fat, refrigerated storage, 200 ppm
[3] = tested on: Salmonella; conditions: postchill decontamination tank, ground poultry parts; 0.07 and 0.1% PAA evaluated

Compound	inhibitory effect against Salmonella [1]	effect on growth of Salmonella [2]	reduction of Salmonella [3]
CCCCCCCCCCCC(=O)N[C@@H](CCCN=C(N)N)C(=O)OCC [LAE, lauric arginate]	strong inhibitory (P<0.05) effect	no inhibitory (P>0.05) effect	–
CC(=O)OO [PAA, peracetic acid]	–	–	effective for the reduction of Salmonella
